Each block holds one compound with its values, some of them ahead of it.
Columns and labels:
[1] = tested on: mice; test: d9-TML by gavage in mice, plasma d9-TMAVA; type: in vivo
[2] = tested on: mice; test: High-fat diet mice given TMAVA in drinking water for 8 weeks (fatty liver and myocardial hypertrophy); type: in vivo
Excerpt: (§1) Mice in an experimental group were given a high-fat diet and drinking water dissolved with 0.325% (mass/volume %) TMAVA for 8 weeks; and mice in a control group were given a high-fat diet and normal drinking water. After 8 weeks, the mice in the experimental group and the control group were sacrificed and tested.

[3] = molecular target: T1, γ-isopropylbetaine hydroxylase (Bbox) (Homo sapiens, UniProt O75936); test: Binding affinity of Bbox and TMAVA by surface plasmon resonance; details: read-out: separation rate coefficient constant (binding affinity of Bbox and TMAVA)
T1 sequence (O75936 1-387): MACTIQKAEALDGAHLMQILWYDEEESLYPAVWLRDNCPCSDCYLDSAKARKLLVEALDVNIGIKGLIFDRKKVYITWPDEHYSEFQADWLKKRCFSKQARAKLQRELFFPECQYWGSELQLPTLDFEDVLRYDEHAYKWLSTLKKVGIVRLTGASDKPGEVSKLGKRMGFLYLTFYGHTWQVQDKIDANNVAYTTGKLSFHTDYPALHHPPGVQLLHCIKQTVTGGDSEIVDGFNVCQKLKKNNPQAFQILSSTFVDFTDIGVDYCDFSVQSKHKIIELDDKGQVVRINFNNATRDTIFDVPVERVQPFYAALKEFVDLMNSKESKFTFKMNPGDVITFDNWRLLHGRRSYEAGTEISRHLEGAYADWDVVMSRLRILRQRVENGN

[4] = molecular target: T1, γ-isopropylbetaine hydroxylase (Bbox); test: Bbox immobilized on a graphene surface and contacted with TMAVA; type: binding; details: in a similar way as γ-BB to Bbox
[5] = molecular target: T2, γ-isopropylbetaine hydroxylase (Bbox) (Mus musculus, UniProt Q924Y0); test: d9 carnitine formation from d9-γ-BB in high-fat diet mice given TMAVA; type: in vivo; details: 0.325% TMAVA in drinking water and d9-γ-BB, 8 weeks
T2 construct: from tissue; host or cells: whole animal (mice on high-fat diet)
T2 sequence (Q924Y0 1-387): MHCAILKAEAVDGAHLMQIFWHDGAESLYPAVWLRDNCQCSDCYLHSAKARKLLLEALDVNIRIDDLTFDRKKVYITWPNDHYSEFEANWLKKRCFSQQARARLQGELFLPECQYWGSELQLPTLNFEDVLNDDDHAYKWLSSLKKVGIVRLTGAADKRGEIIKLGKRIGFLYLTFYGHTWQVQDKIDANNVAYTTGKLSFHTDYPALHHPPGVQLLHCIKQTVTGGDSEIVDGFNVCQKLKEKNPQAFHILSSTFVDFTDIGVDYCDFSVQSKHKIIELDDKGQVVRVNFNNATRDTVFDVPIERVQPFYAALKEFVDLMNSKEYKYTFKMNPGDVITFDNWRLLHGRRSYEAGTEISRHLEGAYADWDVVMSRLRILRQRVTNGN
Excerpt: Endogenous carnitine synthesis played an important role in physiological dynamic equilibrium. A carnitine precursor (γ-BB) was hydroxylated by y-isopropylbetaine hydroxylase (Bbox) to produce carnitine.
Mice in an experimental group were given a high-fat diet, drinking water dissolved with 0.325% (mass/volume %) TMAVA, and d9-γ-BB; and mice in the control group were given a high-fat diet, normal drinking water, and d9-γ-BB. After 8 weeks, the mice in the experimental group and the control group were sacrificed and tested.

[6] = tested on: mice; test: Carnitine absorption: d9-carnitine by gavage in TMAVA-treated mice; type: in vivo
[7] = tested on: mice; test: Lipidolysis in high-fat diet mice given TMAVA in drinking water for 8 weeks; type: in vivo
Excerpt: as §1, with “TMAVA;” for “TMAVA for 8 weeks;”

[8] = tested on: mice; test: Exogenous carnitine supplementation in TMAVA-induced fatty liver and myocardial hypertrophy in mice; type: in vivo; details: high-fat diet, 0.325% TMAVA plus 0.325% carnitine in drinking water, 8 weeks
Excerpt: Mice were given a high-fat diet and drinking water containing 0.325% (mass/volume %) TMAVA; at the same time, one group was given TMAVA with 0.325% (mass/volume %) carnitine added to the drinking water (carnitine supplementation group).

[9] = tested on: intestinal flora; test: Co-incubation of conventionally raised mice feces with TML; details: different concentrations of TML, sterilized feces had no such effect
[10] = tested on: mice; test: TML added to the drinking water of mice, urine TMAVA; type: in vivo
Excerpt: The antibiotic-treated mice were then placed in conventional cages with normal (non-sterile) mice to colonize the intestinal flora.

[11] = molecular target: T3, DavA and DavB proteins (Pseudomonas putida, UniProt Q88QV1); details: purified DavA and DavB proteins from recombinant Escherichia coli strains
T3 sequence (Q88QV1 1-560): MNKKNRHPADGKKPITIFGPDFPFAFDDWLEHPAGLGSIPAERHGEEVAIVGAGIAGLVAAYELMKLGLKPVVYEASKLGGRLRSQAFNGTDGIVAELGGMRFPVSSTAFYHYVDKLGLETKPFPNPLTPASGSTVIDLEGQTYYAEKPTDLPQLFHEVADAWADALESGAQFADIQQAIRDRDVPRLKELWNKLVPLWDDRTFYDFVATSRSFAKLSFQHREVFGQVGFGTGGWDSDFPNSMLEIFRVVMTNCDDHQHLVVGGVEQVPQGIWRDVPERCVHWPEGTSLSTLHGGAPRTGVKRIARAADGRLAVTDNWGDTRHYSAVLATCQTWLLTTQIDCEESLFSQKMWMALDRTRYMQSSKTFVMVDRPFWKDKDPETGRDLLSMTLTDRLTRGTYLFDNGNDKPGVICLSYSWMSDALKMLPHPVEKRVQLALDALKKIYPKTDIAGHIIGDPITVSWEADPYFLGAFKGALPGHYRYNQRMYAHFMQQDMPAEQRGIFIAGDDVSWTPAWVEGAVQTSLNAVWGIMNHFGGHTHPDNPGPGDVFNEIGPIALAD

[12] = histological analysis, 0.325% TMAVA

plasma level of d9-TMAVA after d9-TML [1]: increase over time
Compound: [2H]C([2H])([2H])[N+](CCCCC(N)C(=O)[O-])(C([2H])([2H])[2H])C([2H])([2H])[2H] (centres unmarked) [d9-TML]

Kd [3]: 9.8 µM
binding of TMAVA to Bbox on graphene surface [4]: can bind to Bbox
level of d9 carnitine compared with control group [5]: significantly lower
Compound: C[N+](C)(C)CCCCC(=O)[O-] [TMAVA, N,N,N-trimethyl-5-aminovaleric acid]
concentration of TMAVA in the plasma and various tissues, increase compared with control group ([2]; 0.325% (mass/volume %) TMAVA in drinking water): 10 times
cardiac systolic function ([2]; 0.325% TMAVA in drinking water): significantly reduced
concentration of aspartate aminotransferase in the plasma compared with control group ([2]; 0.325% TMAVA in drinking water): higher
level of triglyceride in the liver and heart tissues compared with control group ([2]; 0.325% TMAVA in drinking water): significantly higher
lipid droplet content in the liver and heart tissues (oil red O) compared with control group ([2]; 0.325% TMAVA in drinking water): higher
liver and heart size compared with control group ([2]; 0.325% TMAVA in drinking water): significantly larger
content of triglyceride in the plasma compared with control group ([2]; fasting state, 0.325% TMAVA in drinking water): significantly higher
level of d9-carnitine in the plasma compared with normal mice [6]: significantly lower
level of free fatty acid in the blood compared with control group ([7]; 0.325% TMAVA in drinking water): higher
weight of the mice, decrease compared with control group ([7]; 0.325% TMAVA in drinking water): 30%
percentage of large and medium-sized fat cells in the subcutaneous fat [7, 12]: decreased
percentage of small fat cells in the subcutaneous fat [7, 12]: increased

Compound: C[N+](C)(C)CC(O)CC(=O)[O-] (centres unmarked) [carnitine]
aspartate aminotransferase after carnitine supplementation [8]: 50 U/L
cardiac systolic function [8]: significantly improved
content of triglyceride in the liver tissues, decrease [8]: 20%
level of free fatty acid in the plasma [8]: decreased
level of triglyceride in the plasma, decrease [8]: 50%
lipid content in the liver tissues (oil red O) [8]: decreased
weight of the heart [8]: significantly reduced

Compound: C[N+](C)(C)CCCC[C@H](N)C(=O)O [TML, Trimethyllysine]
TMAVA level on co-incubation of feces with TML [9]: increased over time and concentration
TMAVA level in urine [10]: increased
TMAVA production in vitro from TML [11]: time-dependently produced

Source: patent US20230113511A1, “USE OF TMAVA ANTAGONIST AND SYSTEM FOR DIAGNOSING FATTY LIVER OR HEART FAILURE” (ProgLead, Inc, priority 2020, published 2023)
